Laboratory results: ChEMBL document CHEMBL1135014, “Synthesis, radiolabeling and preliminary biological evaluation of radiolabeled 5-methyl-6-nitroquipazine, a potential radioligand for the serotonin transporter” (Bioorg Med Chem Lett, 2002)

How the values were obtained:
[1] = biological target: Sodium-dependent serotonin transporter (Rattus norvegicus) (UniProt P31652); experiment: Enzyme kinetic constant, Bmax was evaluated against Serotonin transporter
[2] = biological target: Sodium-dependent serotonin transporter (Rattus norvegicus, UniProt P31652); experiment: Binding affinity of the radio labeled [3H]5-Methyl-6-nitroquipazine compound against Serotonin transporter in rat frontal cortex homogenates; type: tissue-based
Sequence of Sodium-dependent serotonin transporter (P31652 whole entry): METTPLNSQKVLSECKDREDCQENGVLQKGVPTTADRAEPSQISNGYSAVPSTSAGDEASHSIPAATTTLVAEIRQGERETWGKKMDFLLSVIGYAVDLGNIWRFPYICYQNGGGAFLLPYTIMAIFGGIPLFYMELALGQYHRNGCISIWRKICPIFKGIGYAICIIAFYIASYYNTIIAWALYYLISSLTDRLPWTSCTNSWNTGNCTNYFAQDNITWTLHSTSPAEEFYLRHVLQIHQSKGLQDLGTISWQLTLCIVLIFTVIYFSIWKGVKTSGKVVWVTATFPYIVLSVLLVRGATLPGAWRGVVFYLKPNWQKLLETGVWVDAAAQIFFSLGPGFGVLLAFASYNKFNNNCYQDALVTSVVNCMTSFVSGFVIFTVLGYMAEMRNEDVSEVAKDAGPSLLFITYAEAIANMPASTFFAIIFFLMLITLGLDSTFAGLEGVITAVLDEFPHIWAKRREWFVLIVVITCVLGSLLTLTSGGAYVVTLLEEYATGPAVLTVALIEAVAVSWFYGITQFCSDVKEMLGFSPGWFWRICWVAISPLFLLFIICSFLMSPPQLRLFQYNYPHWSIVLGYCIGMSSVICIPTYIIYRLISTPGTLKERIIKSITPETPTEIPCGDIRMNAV

Sequence of Sodium-dependent serotonin transporter (Rattus norvegicus) (P31652 whole entry): as above

| Compound | Bmax [1] | Kd [2] |
| --- | --- | --- |
| Cc1c([N+](=O)[O-])ccc2nc(N3CCNCC3)ccc12 | 1530 fmol/mg | 51 pM |
| O=[N+]([O-])c1ccc2nc(N3CCNCC3)ccc2c1 [6-NITROQUIPAZINE] | 1530 fmol/mg | 51 pM |
